Compound	melting point
O=C1CCCc2nc(N3CCNCC3)ncc2N1	175 to 178 °C
c1ccc2c(c1)ncc1nncn12	238 to 239 °C
CCC(C)OC(=O)C(C(=O)O)=C1SCS1 (configuration not stated)	80 to 82 °C
CNC(=O)c1ccc(C=CC(=O)NCC(=O)N(C)c2ccc(C)c(COc3cccc4c3nc(SC)n4C)c2C)cc1	224 to 225 °C
C=CCOC[C@H](NC(=O)[C@@H](NC(=O)[C@H](Cc1ccc(OCC=C)cc1)NC(=O)OC(C)(C)C)C(C)C)C(=O)OC	109 to 111 °C
COCCCCCCCCCCCCCCSCCC(=O)OC	31 to 32 °C
CCCS(=O)(=O)N(C)CCc1ccncc1	109 to 110 °C
O=C(NCCCCCCCCCCCO[N+](=O)[O-])c1ccc(N2CCNCC2)nc1	78 to 80 °C
Cc1nc2ccccc2n1CCOCCCl	96 to 98 °C
CC(=O)NC[C@H]1CN(c2ccc(N3CCC(C#N)(Nc4ccccc4)CC3)c(F)c2)C(=O)O1	81 to 85 °C
Oc1ccc(-c2nn(C3CCCC3)c3c(F)cccc23)cc1	131 °C
O=S(=O)(NCC1CCOCC1)c1ccc(Cl)cc1	118 to 119 °C
CC(=O)NCCC1CCc2ccn3nccc3c21 (configuration not stated)	100 to 101 °C
C=CCCOc1ccc(C[C@H](NC(=O)OC(C)(C)C)C(=O)N[C@@H](CC(C)C)C(=O)N[C@@H](CC=C)C(=O)OC)cc1	166 to 168 °C
N#Cc1ccc(NC(=O)c2cccc(S(=O)(=O)N3CCOCC3)c2)c(-c2n[nH]c(=O)o2)c1	283 to 285 °C
c1cc2c(cc1C1CCC3(CC1)OCCO3)OCO2	115 to 116 °C
OC(c1ccccc1)(c1ccc(F)cc1)C1CCNCC1 (configuration not stated)	144 to 146 °C
O=S(=O)(c1cccc2cccnc12)N1CCN(CCc2ccc(F)cc2)CC1	141 °C
ON=c1cc(-c2cc3cccn3cn2)oc2ccc(OCCc3ccc(Cl)cc3)cc12	247 to 249 °C
N#Cc1ccc(N2C(=O)[C@@H]3[C@H](O)CCN3C2=O)c2ccccc12 (relative stereo)	224 to 225 °C

Compound	melting point
CC(C)(C)OC(=O)N[C@H](Cc1ccccc1)C(=O)N1CCC[C@H]1C(=O)NC1CCc2n[nH]cc2C1 (some centres not stated)	108 to 110 °C
CCCCC(CC)CN1C(=O)C(=Cc2cc3sc(-c4ccc(N(c5ccccc5)c5ccccc5)cc4)cc3s2)C(C)=C(C#N)C1=O (configuration not stated)	208 to 213 °C
CCCCCCCCCCCCCCn1ccc(C(=O)O)c1	66 to 67 °C
N#CC(C(=O)Nc1ccccc1)C(=O)c1nn(-c2ccccc2)c2c1CSc1ccc(NC(=O)CCC(=O)O)cc1-2 (configuration not stated)	230 to 233 °C
CCn1c(=O)n(CCC(C)C(C)=O)c(=O)c2c1ncn2CCOC (configuration not stated)	83 to 84 °C
O=C(O)CNC(=O)c1ccc(C(=O)NS(=O)(=O)c2ccc(C(=O)NCCc3ccccc3)cc2)cn1	263 to 265 °C
CNC(=O)C(C#N)C(=O)C1CCC1 (configuration not stated)	81 to 83 °C
CCCCCCCCCCCCCCCCC(C(=O)OC)S(C)=O (configuration not stated)	56 to 57 °C
C#CCN1C(=O)COc2cc(F)c(-n3nc4n(c3=O)CCS4)cc21	211 to 213 °C
CC(=O)NC[C@H]1CN(c2ccc(N3CCC(F)(CC#N)CC3)c(F)c2)C(=O)O1	210 to 212 °C
N#Cc1ncn2c(C(F)(F)F)cc(-c3ccc(OCC(F)(F)F)c(C(F)(F)F)c3)nc12	189 °C
c1ccc2nc(N3CCNCC3)ncc2c1	64 to 66 °C
NC[C@@H]1CC[C@H](C(=O)O)C1 (relative stereo)	186 to 188 °C
O=C(Cn1c2c(c3c4c(ccc31)OCC=C4)CCN(Cc1ccccc1)CC2)Nc1ccccc1	134 to 136 °C
Clc1cccc2c(CN3CCN(c4cc5ccccc5cn4)CC3)n[nH]c12	208 to 209 °C
Cc1cccc(C)c1CNc1cc(C2=NCCO2)cc2c1nc(C)n2C	235 °C
C#CCOc1cc(-n2c(C#N)c(C#N)n(CCC)c2=O)c(F)cc1Cl	164 to 166 °C
CCCCCCCCCCCCCCCCCCOc1cccc(N(CC(=O)O)CC(=O)O)c1	130 to 133 °C
OC1CSC(Oc2cnccc2C(F)(F)F)C(O)C1O (configuration not stated)	191 °C

Next, values leading:

melting point	Compound
> 250 °C	COc1ccc(C(=O)Nc2c(Cl)cncc2Cl)c2c3cc([N+](=O)[O-])ccc3n(C)c12
144 to 146 °C	C[C@@H](c1ccc(-c2ccn(CC(F)(F)F)c(=O)c2)cc1)N1CC[C@](CC(C)(C)O)(c2ccccc2)OC1=O
107 to 108 °C	CON=Cc1c(C(=O)OC)[nH]c2c(C)ccc(C)c12
203 to 204 °C	O=C(CCl)Nc1ccc2c(c1NC(=O)c1ccccc1)C(=O)c1ccccc1C2=O
> 250 °C	CC=CC(=O)Nc1ccc2c(Nc3cccc(Br)c3)ncnc2c1
183 °C	O=C(COc1cc(-c2ccsc2)nc2ccccc12)N1CCOCC1
105 to 107 °C	CCN1c2ncc(C3(c4ccccc4)CO3)cc2C(=O)N(C)c2ccc(Cl)nc21 (configuration not stated)
151 to 152 °C	CCOC(=O)Cc1ccc(-c2nc(COc3ccc(C=O)cc3OC)c(C)o2)cc1
> 250 °C	Nc1ccc(NC(=O)C=C2CC(C(=O)O)Nc3cc(Cl)cc(Cl)c32)cc1 (racemic)
137 to 139 °C	O=Cc1ccc2c(c1)Sc1ccc(F)cc1C=C2
169 to 172 °C	C#CCNc1nc2cc3ccccc3cc2nc1Cl
266 to 270 °C	COc1ccc2c(c1)c1c3c(c(-c4ccccc4)cc1n2CCC(N)=O)C(=O)NC3=O
152 °C	CC(CO)N1c2ccccc2Sc2ccc(C(N)=S)cc21 (racemic)
233 to 234 °C	CCOC(=O)c1ncn2c1c(=O)n(C)c1ncccc12
116 to 117 °C	O=C(O)COc1ccc(SCc2ccc(OCc3ccc(F)c(C(F)(F)F)c3)cc2)c2c1CCC2
217 to 219 °C	O=C(O)COc1ccc(CCC(=O)c2ccc(-c3ccc(C(F)(F)F)cc3)s2)c(Cl)c1Cl
108 to 110 °C	CC(O)c1ccc(-c2ccc(C(=O)OCc3ccc(Cl)cc3)cc2)cc1 (single isomer, unassigned; (+))
56 to 62 °C	CCOC(=O)C=C1c2ccccc2CC(=O)c2ccccc21
144 to 146 °C	CC1=CC(c2cccc(OC(F)(F)F)c2)C2=C(CCCC2=O)N1 (configuration not stated)
74 to 76 °C	S=C=NCc1cc(-c2ccc(Cl)cc2)no1

melting point	Compound
163 to 165 °C	CCN1CCN(C(C(=O)N(C)CCO)c2ccc(Nc3nc(-c4cccc(NC(=O)c5cc6c(s5)CCCCC6)c4C)cn(C)c3=O)cc2)CC1 (configuration not stated)
198 to 200 °C	COc1ccccc1-c1nc(-c2cccnc2)c(C)[nH]1
136 to 137 °C	COc1ccc2oc(-c3csc(C)n3)cc2c1
144 to 145 °C	Cn1c(CC(=O)O)ccc1C(=O)c1ccccc1
314 to 316 °C	O=c1[nH]c2cc(Cl)cc(Cl)c2c(=O)n1Cc1ccc(I)cc1
119 to 120 °C	O=C(/C=C/[C@@H]1[C@H]2CC(=O)O[C@H]2C[C@H]1OC(=O)c1ccccc1)CCc1ccccc1
277 to 278 °C	COc1cc(C=CC(=O)Nc2cnc3ccc(Cl)cc3c2-c2ccccc2C)cc(OC)c1OC(C)=O
125 to 126 °C	O=C(COc1ccc([N+](=O)[O-])cc1)NCc1ccccc1
63 °C	COC(=O)c1ccc(Cc2cc3cc(C(F)(F)F)ccc3n2S(=O)(=O)c2ccc3c(c2)N(C)CCO3)cc1
132 °C	COc1ccc(S(=O)(=O)N(CC(N)=O)c2ccc(Cl)cc2C(O)c2cc(Cl)ccc2Cl)cc1OC (configuration not stated)
176 to 177 °C	O=C(CCc1cnoc1-c1ccccc1)Nc1ccc(-n2ccnc2)cc1
270 to 275 °C	Cc1ccccc1C(=O)Nc1ccc(C(=O)O)cc1
77 to 78 °C	CC(=O)COc1ccc([N+](=O)[O-])cc1
> 131 °C	CCCCc1nc(C(O)C(C)C)c(C(N)=O)n1Cc1ccc(-c2ccccc2C(=O)O)cc1 (configuration not stated)
108 °C	COc1ccc(N=C(Cl)c2cccc([N+](=O)[O-])c2)cc1
216 to 218 °C	COc1ccc(-c2cccs2)c2c(OC)ccc(-c3cccs3)c12
152 to 154 °C	Cc1cc(=O)[nH]c(SCc2ccccc2N(C)C)n1
203 to 205 °C	CC(C)c1ccc(C(=O)Cc2c(Cl)cccc2Cl)c(C(C)C)c1OS(N)(=O)=O
90 to 91 °C	COc1ccc(C(O)c2sccc2C=O)cc1OC (configuration not stated)
273 to 275 °C	O=C(O)c1ccc2c(c1)Sc1ccc(F)cc1C=C2

melting point	Compound
181 to 184 °C	[N-]=[N+]=NCC(=O)Nc1ccc(S(=O)(=O)c2ccc(F)cc2)cc1
163 °C	COc1ccc(Sc2cnnc3ccccc23)cc1
159 to 161 °C	CCOc1nc2ccccc2nc1N(C)C(=O)N1CCN(c2cc(OC)cc(OC)c2)CC1
207 to 209 °C	Cc1ccc(-c2nc(N3CCN(C)CC3)c3c(C)c(C#N)sc3n2)cc1
142 °C	CCN(CC)CCOc1ccc(Nc2ncc3c(n2)N(C)C(=O)N(c2c(Cl)cc(Cl)cc2Cl)C3)cc1
145 to 146 °C	CSc1noc(C2CC2)c1C(=O)c1ccc(C(F)(F)F)cc1S(C)(=O)=O
82 °C	CC/C(=C\CCC(O)(CC)CC)c1ccc(COc2ccc(CO)c(CO)c2)s1
132 to 135 °C	Nc1ccc(Oc2ccc([N+](=O)[O-])cc2)cn1
156 to 158 °C	CSc1cnn2c(Nc3ccc(F)c(Cl)c3)cc(Cl)nc12
120 to 124 °C	CC(C)c1cccc(C(C)C)c1NC(=O)C(Cc1ccccc1)NCc1ccccc1 (configuration not stated)
168 to 169 °C	N#Cc1cc(Cl)ccc1-c1ccc(C(O)CCC(=O)O)cc1 (configuration not stated)
162 °C	CCCCOc1ccc(S(=O)(=O)C2(C(=O)O)CCN(CC)CC2)cc1
38 to 39 °C	OCC(CO)OCc1ccccc1
86 to 88 °C	CCOC(=O)Nc1ccc(OC)c(OC)c1C=O
62 to 63 °C	C=C(CN(Cc1ccccc1)Cc1ccccc1)C(=O)OC(C)(C)C
156 to 158 °C	COC(=O)NC(=S)Nc1ccccc1NC(=O)CCl
158 °C	COC(=O)CCC(=O)N(O)Cc1c(C)n(C(=O)c2ccc(Cl)cc2)c2ccc(OC)cc12
100 to 102 °C	C=C(C)C(=O)Oc1cccc(O)c1O

Reference: a melting point compilation (Tetko et al.; mined from patent text by program, amines drawn as free bases though some values may be those of a salt)
